Patent US12582680B2, “Pharmaceutical composition for prevention, amelioration, or treatment of skin disease” (priority 2019, dated 2026)

Legend:
SPF-Tmem79-KO mouse = assay: Antibiotic in drinking water, dermatitis clinical scores of SPF-Tmem79-KO mouse; format: in vivo; details: 200 mg/mL in drinking water; FIG. 9B
Method: For the SPF-Tmem79-KO mouse and the control (SPF-WT mice), the clinical scores were evaluated on a 4-point scale of 0: normal, 1: mild, 2: moderate, and 3: severe for each of the four items of erythema, edema, erosion, and dryness. The degree of inflammation in the skin was evaluated by using the total value of the clinical scores of the four items. In the drawing, the SPF-Tmem79-KO mouse is described as “SPF Tmem79^−/−”, and the SPF-WT mouse is described as “SPF WT”. It can be understood that the SPF-Tmem79-KO mouse developed bimodal dermatitis.
Ampicillin (manufactured by NACALAI TESQUE, INC.) or fusidic acid (manufactured by Sigma-Aldrich Co. LLC.) was suspended in drinking water so as to be 200 mg/mL and the resultant drinking water was administered to the SPF-Tmem79-KO mouse, and the clinical scores were obtained with time.

S. aureus = assay: Sensitivity to antibiotics, culture of skin bacteria in media containing antibiotics, number of colonies; format: cell-based; details: FIGS. 9C and 9D
Description: (§1) FIG. 9A is a schematic diagram showing an experimental flow. FIG. 9B is a graph that indicates changes over time of clinical scores in the skins of SPF-Tmem79^−/− mice inoculated with ampicillin (Amp) or fusidic acid (FA) being an antibiotic (ABx).
(§2) Further, the sensitivity of S. aureus and S. cohnii to both antibiotics was verified by using the antibiotics. The proliferation of S. aureus was suppressed by any one of the ampicillin and the fusidic acid (FIGS. 9C and 9D).

S. cohnii = assay: as above; format: cell-based; details: FIGS. 9C and 9E
Description: as §1, §2

[1] = system: GF-WT mouse applied with imiquimod; assay: Imiquimod-initiated inflammation in GF-WT mouse, squalene and mifepristone; format: in vivo
Method: Imiquimod (Beselna cream, manufactured by MOCHIDA PHARMACEUTICAL CO., LTD.) was applied onto the ears of a GF-WT mouse at a dose of 50 mg per mouse once a day for 5 consecutive days.
Further, in another group of mice, mifepristone (M8046-1G, manufactured by Sigma-Aldrich Co. LLC) was administered to the mice freely at 210 μg/mL in drinking water during the experimental period.

[2] = mifepristone 210 μg/mL in drinking water

| SMILES | degree of dermatitis (clinical scores) (SPF-Tmem79-KO mouse) | proliferation of S. aureus (S. aureus) | proliferation of S. cohnii (S. cohnii) | suppression of imiquimod-initiated inflammation by S. cohnii, effect of mifepristone [1, 2] | suppression of imiquimod-initiated inflammation by squalene, effect of mifepristone [1, 2] | imiquimod-initiated inflammation (ear swelling and lymph node swelling) ([1]; S. cohnii 2.0×10^7 CFU first 3 days, squalene 200 μl per mouse for 5 days, FIGS. 22B and 22C) |
| --- | --- | --- | --- | --- | --- | --- |
| CC1(C)S[C@@H]2[C@H](NC(=O)[C@H](N)c3ccccc3)C(=O)N2[C@H]1C(=O)O [ampicillin] | alleviation of the dermatitis was not observed | suppressed | significantly suppressed | – | – | – |
| CC(=O)O[C@H]1C[C@@]2(C)[C@@H](C[C@@H](O)[C@H]3[C@@]4(C)CC[C@@H](O)[C@@H](C)[C@@H]4CC[C@@]32C)/C1=C(\CCC=C(C)C)C(=O)O [fusidic acid] | alleviated | suppressed | not suppressed | – | – | – |
| CC#C[C@]1(O)CC[C@H]2[C@@H]3CCC4=CC(=O)CCC4=C3[C@@H](c3ccc(N(C)C)cc3)C[C@@]21C [mifepristone] | – | – | – | inhibited | inhibition of suppressive effect | – |
| CC(C)=CCC/C(C)=C/CC/C(C)=C/CC/C=C(\C)CC/C=C(\C)CCC=C(C)C [squalene] | – | – | – | – | – | almost the same as that of S. cohnii |
